Several values for one entry are separate records, joined by “and”; a condition that tells them apart may be missing. Equal entries are not always repeated. Entries after “also recorded” stand apart in the source; their conditions may differ.
Legend:
P. falciparum [1] = conditions: added to blood meals at 30 µM; ref [35]; cited from earlier work
Description: Some candidate AMPs were additionally investigated using P. falciparum and An. gambiae. TP10 dimer and Melittin lowered both prevalence and intensity of P. falciparum infections produced from laboratory cultures. It has already been reported that the monomer of TP10, added to blood meals at 30 µM, reduced parasite prevalence by 35–45% [35].

P. berghei ookinetes = assay: P. berghei ookinete viability in vitro (erythrosin B); type: cell-based, Plasmodium berghei; conditions: 30 min; for Reduction in ookinete viability: versus control
Description: Our primary aim was to target parasites in mosquitoes before they cross the midgut wall, therefore AMPs were first assessed for their ability to kill ookinetes in vitro. […] Ookinete cultures of P. berghei were established from gametocytaemic blood as previously described. Parasites were enriched using cold 0.17M ammonium chloride after 18 h of culture and washed thoroughly with PBS (phosphate buffered saline). Parasites were seeded in triplicate wells of a 96-well microtitre plate at a density of 1×10^5/ml in a volume of 47.5 µl Schneider's insect medium (Invitrogen) with 2.5 µl of the test AMP (final concentration of 50 µM). Ookinetes were incubated for 30 min in conjunction with triplicate control wells containing medium with 2.5 µl of water instead of AMP. A sub-sample of parasites was then added to an equal volume of 5% erythrosin B to assess viability (150 ookinetes in total, taken from 3 wells). Each of the 33 AMPs was screened in this way and assays were performed 3 times. AMPs displaying a high degree of toxicity (>90% of ookinetes displaying erythrosin B staining) underwent further ookinete assays using a concentration of 100 µM AMP. To assess synergistic effects, combinations of two peptides were also tested at a concentration of 25 µM per AMP, in the assay described above.

[2] = test system: Anopheles gambiae Sua 4.0 cells; assay: Sua 4.0 mosquito cell viability (erythrosin B exclusion); type: cell-based; parameters: dose or concentration left out as unconfirmed; conditions: after 48 h culture
Description: (§1) To establish potential effects of AMPs on mosquito cells, the An. gambiae Sua 4.0 cell line was used. This facilitated an initial high-throughput screening and provided insights into AMP toxicity, mode of action (lytic or other) and speed of action. Sua 4.0 cells were maintained at 27°C in Schneider's insect medium supplemented with 10% FBS (foetal bovine serum) in T25 culture flasks (Fisher, UK).
(§2) Each AMP was tested separately to establish if it affected cell viability and growth. […] Cells were maintained for 3, 6, 24 or 48 h, after which they were resuspended and a sub-sample from duplicate wells counted using a haemocytometer. To establish cell viability after 48 h (whether simply arrested in development or non-viable), resuspended cells were added to an equal volume of 5% erythrosin B vital dye and viable cells excluding the stain were counted. The viability of 100 cells in triplicate wells was recorded. Each AMP assay was performed in triplicate and included a negative control minus the peptide (5 µl of water alone added to the medium) and a further control of 5 µl of 10% SDS (sodium dodecyl sulphate) substituted for the AMP as this causes 100% cell lysis.

[3] = test system: Anopheles gambiae Sua 4.0 cells; assay: Sua 4.0 mosquito cell growth (cell counts); type: cell-based; conditions: 25 µM AMP; for Average number of cells over 3 replicates, peptide: seeded 30×10^4/ml, mean of 3 experiments
Description: as §1, §2

P. falciparum [4] = assay: Cultured P. falciparum gametocytes membrane-fed to An. gambiae (oocyst prevalence and intensity); type: in vivo, Plasmodium falciparum; conditions: 50 µM; for Oocyst intensity (mean number of oocysts per gut, range in parentheses), peptide / Oocyst prevalence (oocyst positive mosquitoes), peptide: cultured gametocytes, An. gambiae
Description: P. falciparum NF54 gametocytes were produced through large-scale automated culture at the Pasteur Institute, Paris, [69]. Gametocytes were grown in 10 ml RPMI 1640 medium (Invitrogen), supplemented with 25 mM HEPES and L-glutamine, 10% heat-inactivated human serum and hypoxanthine (20 mg/L) under a constant gas supply (5% CO2, 1% O2, 94% N2). Fresh red blood cells (RBCs) were added to obtain a 7% haematocrit. Fourteen days after initiating the culture, gametocyte maturity was assessed on thin Giemsa-stained blood smears, and male gametocyte maturity verified by exflagellation tests. Gametocyte cultures were centrifuged for 5 min at 1500 rpm and the ∼500–600 µl pellet resuspended in fresh RBCs and AB human serum to give a final haematocrit of 40%.
Blood containing mature gametocytes (475 µl) was added to 25 µl of the test AMP (50 µM final concentration). Peptides were replaced by 25 µl of sterile deionized water for each control. The blood/parasite/peptide mixture was placed in a Hemotek membrane feeder, previously warmed to 37°C. For each feed, 70 to 100 nulliparous female An. gambiae mosquitoes were left to feed in the dark for 15 min and only fully engorged females were transferred to small cages and provided with 10% sucrose containing 0.05% PABA. After 8 days, 30 midguts were dissected and stained with bromo fluorescein for the detection of oocysts.

[5] = test system: An. gambiae (Mali strain); assay: Mosquito oviposition after blood feed containing AMP; type: in vivo, Anopheles gambiae; conditions: for Significance of effect on oviposition: 50 µM AMP, one-way ANOVA, peptide vs control; for Mean no. of eggs laid per mosquito, peptide: after first feed with 50 µM AMP, eggs laid over two nights, averaged per surviving mosquito, 3 or 4 replicates
Description: (§3) Female An. gambiae (Mali strain, 3–5 days old) were used to establish the effects of AMPs on mosquito longevity and fecundity in the absence of confounding factors introduced with parasite infection. Two hundred 3–6 day old females were fed on human O+ whole blood supplemented with 50 µM AMP (or water control, 1 ml total volume) via feeding chambers of a Hemotek membrane feeding system. Fully engorged mosquitoes were randomly moved into four separate cages, each containing 25 mosquitoes, to facilitate monitoring. Mortality rates were recorded daily for a 10-day period, and oviposition sites were provided on the second and third night post-feeding. A second blood feed containing the same AMP was administered 7 days later to mimic the likelihood that mosquitoes would feed at least twice in the field during the development of sporogonic stages of the malaria parasite. Oviposition sites were again provided to assess fecundity through the number of eggs laid as an average per surviving mosquito. Assays for each AMP were repeated in triplicate on separate generations of mosquitoes. Due to egg retention under experimental conditions, egg production is best measured by dissecting mosquitoes that have not been provided with an oviposition site. However, this is not a feasible method of determining fecundity when longevity is also being measured.

[6] = test system: An. gambiae (Mali strain); assay: Mosquito longevity after blood feeds containing AMP; type: in vivo, Anopheles gambiae; conditions: for Significance of effect on longevity over 10 days: 50 µM AMP, Kaplan-Meier, Wilcoxon, peptide vs control; for Percent alive, peptide: over 10 days, 50 µM AMP in human blood, feeds on days 0 and 7, 3 or 4 replicates
Description: as §3

P. falciparum [7] = assay: Field P. falciparum from gametocyte carriers membrane-fed to An. gambiae (Mali); type: in vivo, Plasmodium falciparum; conditions: Replicate 1, 50 µM
Source text: Nyaganabougou, a village approximately 60 km south-west of the Malian capital, Bamako, was used as a site for the source of donors of malaria-infected blood. Due to its proximity to the river Niger, which provides perennial mosquito breeding sites, Nyaganabougou has high numbers of infected individuals and an extended transmission season. Mosquitoes used to establish the An. gambiae Mali colony used for this study were originally collected in the village of Kenieroba (a distance of 15 km from Nyaganabougou). Potential male and female gametocyte carriers between the ages of 6–10 were screened by thick smear and parasite species and density determined by local staff, led by Saibou Doumbia.
Gametocyte carriers were taken to the Malaria Research and Training Centre at the University of Bamako for blood donation. Approximately 4 ml of blood was extracted from carriers and immediately divided into 3 Hemotek membrane feeders for testing 2 separate AMPs and one control for each carrier. Peptides were added to 950 µl of gametocytaemic blood for a final concentration of 50 µM. All parasite-positive individuals were subsequently treated appropriately for parasites and associated symptoms, as determined by, and carried out by, local health workers in Nyaganabougou.
Approximately 120 adult female An. gambiae (Mali, 4–7 days old) were starved overnight, and allowed to feed on the gametocytaemic blood/AMP mix for 30 min. Engorged females were maintained on 10% glucose with 0.05% PABA for 8 days before dissection. No oviposition sites were provided so that fecundity could be measured by determining retained eggs. Mosquito wing length, numbers of retained eggs and oocysts were recorded, and triplicate peptide experiments were carried out on different mosquito cohorts, using blood from different donors. Where possible, a minimum of 50 mosquitoes were dissected for each condition.

[8] = test system: An. gambiae (Mali strain); assay: Mosquito longevity after blood feeds containing AMP; type: in vivo, Anopheles gambiae; conditions: 50 µM AMP in blood on days 0 and 7; extended to 30 days
P. berghei = P. berghei infections in Anopheles stephensi (oocyst prevalence and intensity); type: in vivo, Plasmodium berghei; conditions: for Prevalence (proportion of infected mosquitoes), peptide: 50 µM peptide in gametocytaemic mouse blood fed to An. stephensi; for Intensity (mean number of oocysts, range in parentheses), peptide: 50 µM peptide, An. stephensi
Description: To assess the effects of AMPs on parasites in vivo, mouse blood containing P. berghei gametocytes was obtained by cardiac puncture and 475 µl was rapidly mixed with 25 µl (50 µM final concentration) of AMP. This mixture was fed to 100 nulliparous 3–5 day old female An. stephensi. A further 475 µl of blood from the same infection was mixed with 25 µl of distilled water to act as a control. Mosquitoes were maintained at 19°C for optimum parasite development. Between 30 and 50 mosquitoes were dissected after 10 days. Mosquito wing length, numbers of retained eggs and oocysts were recorded in triplicate experiments carried out on different mosquito cohorts.

[9] = 50 µM of single peptide, n = 150 ookinetes per treatment per replicate
[10] = 3 hrs in culture, haemocytometer count of duplicate wells
[11] = Replicate 1, dissected after 8 days
[12] = over the three replicates, 50 µM

| Molecule | Average ookinete viability (3 reps), peptide (P. berghei ookinetes; [9]) [%] | Reduction in ookinete viability (P. berghei ookinetes; 50 µM of single peptide) [%] | Reduction in cell number (compared to control) ([3]; 3 hrs in culture) [%] | Average number of cells over 3 replicates, peptide [3, 10] [mL⁻¹] | Reduction in cell number (compared to control) ([3]; 24 hrs in culture) [%] | Average number of cells over 3 replicates, peptide ([3]; 24 hrs in culture) | Reduction in cell number (compared to control) ([3]; 48 hrs in culture) [%] | Average number of cells over 3 replicates, peptide ([3]; 48 hrs in culture) [mL⁻¹] | Oocyst intensity (mean number of oocysts per gut, range in parentheses), peptide (P. falciparum [4]; Replicate 1) | Oocyst prevalence (oocyst positive mosquitoes), peptide (P. falciparum [4]; [11]) | Oocyst intensity (mean number of oocysts per gut, range in parentheses), peptide (P. falciparum [4]; Replicate 2) | Oocyst prevalence (oocyst positive mosquitoes), peptide (P. falciparum [4]; Replicate 2) | Oocyst intensity (mean number of oocysts per gut, range in parentheses), peptide (P. falciparum [4]; Replicate 3) | Oocyst prevalence (oocyst positive mosquitoes), peptide (P. falciparum [4]; Replicate 3) | Significance of effect on oviposition [5] | Mean no. of eggs laid per mosquito, peptide [5] | Significance of effect on longevity over 10 days [6] | Percent alive, peptide [6] [%] | other results |
| --- | --- | --- | --- | --- | --- | --- | --- | --- | --- | --- | --- | --- | --- | --- | --- | --- | --- | --- | --- |
| CC[C@H](C)[C@H](NC(=O)[C@H](CCCCN)NC(=O)[C@H](CCCCN)NC(=O)[C@H](C)NC(=O)[C@H](CC(C)C)NC(=O)[C@H](C)NC(=O)[C@H](C)NC(=O)[C@H](CC(C)C)NC(=O)[C@H](C)NC(=O)[C@H](CCCCN)NC(=O)[C@H](CC(C)C)NC(=O)[C@H](CC(N)=O)NC(=O)[C@@H](NC(=O)[C@H](CCCCN)NC(=O)CNC(=O)[C@H](CC(C)C)NC(=O)[C@H](CC(C)C)NC(=O)[C@H](Cc1ccc(O)cc1)NC(=O)CNC(=O)[C@H](C)N)[C@@H](C)CC)C(=O)N[C@@H](CC(C)C)C(=O)O [TP10] | 26 | 71 | 31 | 220000 | 23 | 400000 mL⁻¹ | 3 | 780000 |  |  |  |  |  |  |  |  |  |  | Reduction of parasite prevalence (P. falciparum [1]): 35–45%; Reduction in cell viability ([2]; versus control): 3% |
| Mastoparan X | 41 | 57 |  |  |  |  |  |  | 2 (0–11) | 47% (30) | 2 (0–29) | 40% (30) | 11 (0–72) | 60% (30) | N/S | 44 | N/S | 84 | Oocyst prevalence (oocyst positive mosquitoes), peptide (P. falciparum [7]; blood of gametocyte carriers, progeny of field An. gambiae): 45% (40); Oocyst intensity (mean number of oocysts per gut, range in parentheses), peptide (P. falciparum [7]; field parasites and mosquitoes): 3 (0–21); Average ookinete viability (3 reps), peptide (P. berghei ookinetes; 100 µM of single peptide): 4%; Reduction in ookinete viability (P. berghei ookinetes; 100 µM of single peptide): 96%; Effect on longevity over 30 days (in words) [8]: no significant long-term effects on longevity |
| Melittin | 0 | 100 | 84 | 50000 | 100 | no cells remaining and 0 ×10^4/ml | 100 | 0 | 0 | 0% (30) | <1 (0–1) | 17% (30) | 6 (0–74) | 37% (30) | N/S | 41 | N/S | 84 | Average reduction of intensity of infection (P. falciparum [4]; over three replicates): 57%; Average reduction of prevalence (P. falciparum [4]; over three replicates): 60%; Average viability of cells (3 replicates), peptide ([2]; erythrosin B exclusion, 100 cells in triplicate wells): no intact cells remained; also recorded: No remaining cells; Prevalence (proportion of infected mosquitoes), peptide (P. berghei; Replicate 1): 98% (50); Intensity (mean number of oocysts, range in parentheses), peptide (P. berghei; Replicate 1): 50 (0–192); Prevalence (proportion of infected mosquitoes), peptide (P. berghei; Replicate 2): 82% (49); Intensity (mean number of oocysts, range in parentheses), peptide (P. berghei; Replicate 2): 28 (0–160); Prevalence (proportion of infected mosquitoes), peptide (P. berghei; Replicate 3): 72% (50); Intensity (mean number of oocysts, range in parentheses), peptide (P. berghei; Replicate 3): 31 (0–412); Average reduction of parasite prevalence (P. berghei; [12]): 10%; Mean oocysts per midgut (P. berghei; [12]): 37 oocysts per midgut; Reduction of infection intensity (P. berghei; over the three replicates, 50 µM, control mean 114 oocysts): 68% |

From PMC3836994, “Killer Bee Molecules: Antimicrobial Peptides as Effector Molecules to Target Sporogonic Stages of Plasmodium” (PLoS Pathogens, 2013)
